Experimental data: patent publication US11111220B2, “Propanamine derivatives for treating pain and pain related conditions” (ESTEVE PHARMACEUTICALS, S.A., priority 2017, dated 2021)

Target: Human α2δ-1 Subunit of Cav2.2 Calcium Channel (Homo sapiens, UniProt P54289)
Experiment: Binding assay to human α2δ-1 subunit of Cav2.2 calcium channel ([3H]-Gabapentin)
Settings: Table 1; human α2δ-1 enriched membranes, 15 nM [3H]-Gabapentin; read-out: Ki(nM) alpha2delta Hum
Method: Binding Assay to Human α2δ-1 Subunit of Cav2.2 Calcium Channel.
Human α2δ-1 enriched membranes (2.5 μg) were incubated with 15 nM of radiolabeled [3H]-Gabapentin in assay buffer containing Hepes-KOH 10 mM, pH 7.4.
NSB (non specific binding) was measured by adding 10 μM pregabalin. The binding of the test compound was measured in five different concentrations. After 60 min incubation at 27° C., binding reaction was terminated by filtering through Multiscreen GF/C (Millipore) presoaked in 0.5% polyethyleneimine in Vacuum Manifold Station, followed by 3 washes with ice-cold filtration buffer containing 50 mM Tris-HCl, pH 7.4.
Filter plates were dried at 60° C. for 1 hour and 30 μl of scintillation cocktail were added to each well before radioactivity reading.
Readings were performed in a Trilux 1450 Microbeta radioactive counter (Perkin Elmer).

Chain of Human α2δ-1 Subunit of Cav2.2 Calcium Channel (P54289 25-1103): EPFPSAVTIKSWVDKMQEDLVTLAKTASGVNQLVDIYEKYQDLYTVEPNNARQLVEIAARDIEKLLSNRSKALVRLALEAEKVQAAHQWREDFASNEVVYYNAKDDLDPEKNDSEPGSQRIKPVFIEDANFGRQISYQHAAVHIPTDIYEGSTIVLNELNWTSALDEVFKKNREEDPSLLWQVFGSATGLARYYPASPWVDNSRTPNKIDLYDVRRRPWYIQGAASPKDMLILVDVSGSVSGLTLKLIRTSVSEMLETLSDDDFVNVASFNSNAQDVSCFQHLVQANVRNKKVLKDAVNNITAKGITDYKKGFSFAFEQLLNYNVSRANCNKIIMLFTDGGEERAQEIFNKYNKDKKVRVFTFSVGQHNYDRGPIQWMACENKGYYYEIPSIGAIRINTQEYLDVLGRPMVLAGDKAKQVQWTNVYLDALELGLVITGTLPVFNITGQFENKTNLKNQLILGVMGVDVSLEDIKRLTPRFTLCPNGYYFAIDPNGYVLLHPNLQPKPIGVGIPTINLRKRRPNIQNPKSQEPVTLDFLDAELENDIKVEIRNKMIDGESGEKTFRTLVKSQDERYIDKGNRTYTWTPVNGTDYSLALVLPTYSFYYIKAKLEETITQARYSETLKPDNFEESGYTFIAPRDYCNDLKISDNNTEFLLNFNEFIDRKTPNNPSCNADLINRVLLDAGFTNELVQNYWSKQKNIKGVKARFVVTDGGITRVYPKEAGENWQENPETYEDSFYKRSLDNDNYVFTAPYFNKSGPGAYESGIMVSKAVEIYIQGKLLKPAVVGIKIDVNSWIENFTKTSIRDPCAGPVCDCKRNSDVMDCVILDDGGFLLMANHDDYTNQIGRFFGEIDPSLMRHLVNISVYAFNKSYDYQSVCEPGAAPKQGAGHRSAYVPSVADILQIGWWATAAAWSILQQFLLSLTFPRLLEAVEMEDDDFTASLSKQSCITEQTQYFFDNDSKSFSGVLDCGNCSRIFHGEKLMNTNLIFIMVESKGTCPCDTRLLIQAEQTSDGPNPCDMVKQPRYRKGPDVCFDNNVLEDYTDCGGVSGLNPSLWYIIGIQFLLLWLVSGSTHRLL

Compound	Ki
CCNc1ccc(NC(=O)c2cccc(OC(CCNC)c3ccccc3)c2)cn1 (centres unmarked) [Example 21, N-(6-(ethylamino)pyridin-3-yl)-3-(3-(methylamino)-1-phenylpropoxy)benzamide]	≥ 3000 nM
CNCCC(Oc1cccc(N(C)C(C)=O)c1)c1cccs1 (centres unmarked) [Example 62, N-methyl-N-(3-(3-(methylamino)-1-(thiophen-2-yl)propoxy)phenyl)acetamide]	≥ 3000 nM
CNCCC(Oc1cccc(C(=O)Nc2ccccc2N(C)C)c1)c1cccs1 (centres unmarked) [Example 12, N-(2-(dimethylamino)phenyl)-3-(3-(methylamino)-1-(thiophen-2-yl)propoxy)benzamide]	500 to 3000 nM
CNCCC(OCc1cccc(NC(=O)c2cnc(SC)nc2)c1)c1ccccc1 (centres unmarked) [Example 44, N-(3-((3-(methylamino)-1-phenylpropoxy)methyl)phenyl)-2-(methylthio)pyrimidine-5-carboxamide]	≥ 3000 nM
CNCCC(Oc1cccc(CN(C)C)c1)c1cccs1 (centres unmarked) [Example 4, 3-(3-((Dimethylamino)methyl)phenoxy)-N-methyl-3-(thiophen-2-yl)propan-1-amine]	100 to 500 nM
CCNc1ncc(C(=O)N(C)c2cccc(OC(CCNC)c3ccccc3)c2)cn1 (centres unmarked) [Example 60, 2-(Ethylamino)-N-methyl-N-(3-(3-(methylamino)-1-phenylpropoxy)phenyl)pyrimidine-5-carboxamide]	≥ 3000 nM
CCNc1ncc(C(=O)Nc2cccc(COC(CCNC)c3cccs3)c2)c(N2CCCC2)n1 (centres unmarked) [Example 49, 2-(Ethylamino)-N-(3-((3-(methylamino)-1-(thiophen-2-yl)propoxy)methyl)phenyl)-4-(pyrrolidin-1-yl)pyrimidine-5-carboxamide]	500 to 3000 nM
CNCCC(OCc1cccc(N(C(C)=O)c2ccccc2)c1)c1ccccc1 (centres unmarked) [Example 61, N-(3-((3-(methylamino)-1-phenylpropoxy)methyl)phenyl)-N-phenylacetamide]	≥ 3000 nM
CNCCC(Oc1cccc(C(=O)Nc2ccccc2)c1)c1cccs1 (centres unmarked) [Example 66, 3-(3-(Methylamino)-1-(thiophen-2-yl)propoxy)-N-phenylbenzamide]	500 to 3000 nM
CNCCC(Oc1cccc(N(C)C(=O)c2ccccc2)c1)c1cccs1 (centres unmarked) [Example 63, N-methyl-N-(3-(3-(methylamino)-1-(thiophen-2-yl)propoxy)phenyl)benzamide]	≥ 3000 nM
CCNc1ncc(C(=O)Nc2cccc(COC(CCNC)c3ccccc3)c2)c(N2CCCC2)n1 (centres unmarked) [Example 45, 2-(Ethylamino)-N-(3-((3-(methylamino)-1-phenylpropoxy)methyl)phenyl)-4-(pyrrolidin-1-yl)pyrimidine-5-carboxamide]	500 to 3000 nM
CNCCC(Oc1cccc(C(=O)N(C)c2ccccc2)c1)c1ccccc1 (centres unmarked) [Example 69, N-methyl-3-(3-(methylamino)-1-phenylpropoxy)-N-phenylbenzamide]	≥ 3000 nM
CNCCC(OCc1cccc(N(C)C(=O)c2ccccn2)c1)c1ccccc1 (centres unmarked) [Example 36, N-methyl-N-(3-((3-(methylamino)-1-phenylpropoxy)methyl)phenyl)picolinamide]	≥ 3000 nM
CNCCC(Oc1cccc(C(=O)Nc2cccc(-c3nnc(C)o3)c2)c1)c1cccs1 (centres unmarked) [Example 9, N-(3-(5-methyl-1,3,4-oxadiazol-2-yl)phenyl)-3-(3-(methylamino)-1-(thiophen-2-yl)propoxy)benzamide]	500 to 3000 nM
CCNc1ncc(C(=O)N(C)c2cccc(OC(CCNC)c3ccccc3)c2)c(N2CCCC2)n1 (centres unmarked) [Example 29, 2-(Ethylamino)-N-methyl-N-(3-(3-(methylamino)-1-phenylpropoxy)phenyl)-4-(pyrrolidin-1-yl)pyrimidine-5-carboxamide]	≥ 3000 nM
CCCC(=O)N(C)c1cccc(OC(CCNC)c2cccs2)c1 (centres unmarked) [Example 64, N-methyl-N-(3-(3-(methylamino)-1-(thiophen-2-yl)propoxy)phenyl)butyramide]	≥ 3000 nM
CNCCC(OCc1cccc(N(Cc2ccccc2)C(C)=O)c1)c1ccccc1 (centres unmarked) [Example 57, N-benzyl-N-(3-((3-(methylamino)-1-phenylpropoxy)methyl)phenyl) acetamide]	≥ 3000 nM
CCN(Cc1cccc(OC(CCNC)c2cccs2)c1)C(=O)c1ccccc1 (centres unmarked) [Example 56, N-ethyl-N-(3-(3-(methylamino)-1-(thiophen-2-yl)propoxy)benzyl) benzamide]	≥ 3000 nM
CCCC(=O)N(C)c1cccc(OC(CCNC)c2ccccc2)c1 (centres unmarked) [Example 25, N-methyl-N-(3-(3-(methylamino)-1-phenylpropoxy)phenyl)butyramide]	≥ 3000 nM
CNCCC(Oc1cccc(N(C)C(=O)c2cccnc2)c1)c1cccs1 (centres unmarked) [Example 65, N-methyl-N-(3-(3-(methylamino)-1-(thiophen-2-yl)propoxy)phenyl)nicotinamide]	≥ 3000 nM
CNCCC(Oc1cccc(C(=O)NCc2ccccn2)c1)c1cccs1 (centres unmarked) [Example 7, 3-(3-(Methylamino)-1-(thiophen-2-yl)propoxy)-N-(pyridin-2-ylmethyl)benzamide]	≥ 3000 nM

Compound	Ki
CCNC(=O)c1cccc(OC(CCNC)c2ccccc2)c1 (centres unmarked) [Example 19, N-ethyl-3-(3-(methylamino)-1-phenylpropoxy)benzamide]	≥ 3000 nM
CNCCC(OCc1cccc(NC(=O)c2ccccc2N(C)C)c1)c1cccs1 (centres unmarked) [Example 47, 2-(Dimethylamino)-N-(3-((3-(methylamino)-1-(thiophen-2-yl)propoxy)methyl)phenyl)benzamide]	≥ 3000 nM
CNCCC(Oc1cccc(CNC)c1)c1cccs1 (centres unmarked) [Example 3, N-methyl-3-(3-((methylamino)methyl)phenoxy)-3-(thiophen-2-yl)propan-1-amine]	100 to 500 nM
CNCCC(OCc1cccc(NCc2cncnc2)c1)c1ccccc1 (centres unmarked) [Example 53, 3-((3-(Methylamino)-1-phenylpropoxy)methyl)-N-(pyrimidin-5-ylmethyl)aniline]	≥ 3000 nM
CCN(Cc1ccccc1)Cc1cccc(OC(CCNC)c2cccs2)c1 (centres unmarked) [Example 1, 3-(3-((Benzyl(ethyl)amino)methyl)phenoxy)-N-methyl-3-(thiophen-2-yl)propan-1-amine]	100 to 500 nM
CNCCC(Oc1cccc(C(=O)N(C)c2cccnc2)c1)c1ccccc1 (centres unmarked) [Example 68, N-methyl-3-(3-(methylamino)-1-phenylpropoxy)-N-(pyridin-3-yl)benzamide]	≥ 3000 nM
CNCCC(OCc1cccc(N(C)C(=O)c2ccccc2)c1)c1ccccc1 (centres unmarked) [Example 31, N-methyl-N-(3-((3-(methylamino)-1-phenylpropoxy)methyl)phenyl)benzamide]	≥ 3000 nM
CNCCC(OCc1cccc(Nc2ncccn2)c1)c1ccccc1 (centres unmarked) [Example 59, N-(3-((3-(methylamino)-1-phenylpropoxy)methyl)phenyl)pyrimidin-2-amine]	≥ 3000 nM
CCNc1ncc(C(=O)Nc2cccc(OC(CCNC)c3cccs3)c2)c(N2CCCC2)n1 (centres unmarked) [Example 51, 2-(Ethylamino)-N-(3-(3-(methylamino)-1-(thiophen-2-yl)propoxy)phenyl)-4-(pyrrolidin-1-yl)pyrimidine-5-carboxamide]	500 to 3000 nM
CNCCC(OCc1cccc(NC(=O)c2cncnc2)c1)c1ccccc1 (centres unmarked) [Example 42, N-(3-((3-(methylamino)-1-phenylpropoxy)methyl)phenyl)pyrimidine-5-carboxamide]	≥ 3000 nM
CNCCC(Oc1cccc(N(C)C(=O)c2cccnc2)c1)c1ccccc1 (centres unmarked) [Example 26, N-methyl-N-(3-(3-(methylamino)-1-phenylpropoxy)phenyl)nicotinamide]	≥ 3000 nM
CNCCC(OCc1cccc(N(C)C(=O)c2cnc(OC)nc2)c1)c1ccccc1 (centres unmarked) [Example 33, 2-Methoxy-N-methyl-N-(3-((3-(methylamino)-1-phenylpropoxy)methyl)phenyl)pyrimidine-5-carboxamide]	≥ 3000 nM
CN(C)CCC(OCc1cccc(NC(=O)c2ccccc2)c1)c1cccs1 (centres unmarked) [Example 54, N-(3-((3-(dimethylamino)-1-(thiophen-2-yl)propoxy)methyl)phenyl) benzamide]	≥ 3000 nM
CCNCc1cccc(OC(CCNC)c2cccs2)c1 (centres unmarked) [Example 5, 3-(3-((Ethylamino)methyl)phenoxy)-N-methyl-3-(thiophen-2-yl)propan-1-amine]	100 to 500 nM
CNCCC(Oc1cccc(C(=O)NC)c1)c1ccccc1 (centres unmarked) [Example 16, N-methyl-3-(3-(methylamino)-1-phenylpropoxy)benzamide]	≥ 3000 nM
CNCCC(OCc1cccc(N(C)C(=O)c2cncnc2)c1)c1ccccc1 (centres unmarked) [Example 34, N-methyl-N-(3-((3-(methylamino)-1-phenylpropoxy)methyl)phenyl)pyrimidine-5-carboxamide]	≥ 3000 nM
CCNc1ncc(C(=O)N(C)c2cccc(COC(CCNC)c3ccccc3)c2)c(N2CCCC2)n1 (centres unmarked) [Example 37, 2-(Ethylamino)-N-methyl-N-(3-((3-(methylamino)-1-phenylpropoxy)methyl)phenyl)-4-(pyrrolidin-1-yl)pyrimidine-5-carboxamide]	500 to 3000 nM
CNCCC(OCc1cccc(N(C)C(=O)c2cnc(SC)nc2)c1)c1ccccc1 (centres unmarked) [Example 35, N-methyl-N-(3-((3-(methylamino)-1-phenylpropoxy)methyl)phenyl)-2-(methylthio)pyrimidine-5-carboxamide]	≥ 3000 nM
CNCCC(Oc1cccc(C(=O)N(C)c2ccccc2)c1)c1cccs1 (centres unmarked) [Example 67, N-methyl-3-(3-(methylamino)-1-(thiophen-2-yl)propoxy)-N-phenylbenzamide]	≥ 3000 nM
CNCCC(Oc1cccc(N(C)C(=O)c2ccccc2)c1)c1ccccc1 (centres unmarked) [Example 23, N-methyl-N-(3-(3-(methylamino)-1-phenylpropoxy)phenyl) benzamide]	≥ 3000 nM
